In the oligonucleotide strings, read from the 5' end, every base follows the letter of its sugar. An asterisk marks phosphorothioate; unmarked linkages are phosphodiester. Other units and linkages are bracketed, terminal groups are in braces. A string of capitals states the bases alone. d = 2'-deoxy (DNA); m = 2'-O-methyl; f = 2'-fluoro
Tests used:
Type in all cases: cell-based, human
AR FL(1) = assay: AR protein knock-down by Western blot after siRNA transfection in 22RV1 cells: AR FL(1); conditions: 5 nM siRNA, 50 h post transfection, compared to controls
Method in brief: (§1)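 siRNAs transfected at 5 nM final (lipid reagent, forward transfection) into 22RV1 (splice variants) or LNCaP (full-length AR T877A) cells; lysates taken at 50 h and 72 h respectively. AR isoforms detected by Western blot with N-terminal AR antibody, α-tubulin control, quantified by IRDye infrared imaging.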

[1] = test system: AR FL (full length AR T877A LBD mutant); assay: AR protein knock-down by Western blot after siRNA transfection in LNCaP cells: AR FL; conditions: 5 nM siRNA, 72 h post transfection, compared to controls
Method in brief: as §1

AR-SV(3) = assay: AR protein knock-down by Western blot after siRNA transfection in 22RV1 cells: AR-SV(3); conditions: 5 nM siRNA, 50 h post transfection, compared to controls
Method in brief: as §1

AR mRNA [2] = assay: AR mRNA downregulation by RT-qPCR at 5 nM siRNA in LNCaP cells; conditions: 24 hrs post-transfection
Procedure: (§2) Focusing on siRNAs targeting AR sequences exons 1 and 2, the ability of these siRNAs to downregulate AR mRNA at a concentration of 5 nM was determined by RT-qPCR. For this purpose, siRNAs were transfected into 22RV1 and LNCaP cells as described above. At 24 hrs post-transfection, RNA was harvested from cells using a Qiagen RNeasy® Plus Mini Kit or Stratec InviTrap® RNA Cell HTS96 kit. The concentration of each isolated RNA was determined via A260 measurement using a NanoDrop spectrophotometer. RNA samples were reverse transcribed to cDNA using the High Capacity RNA to cDNA Kit (Life Technologies) according to the manufacturer's instructions. cDNA samples were then quantified by qPCR using AR-specific probes and results normalized to either endogenous β-actin or PPIB using the standard 2^−ΔΔCt method. These studies identified 6 siRNAs that at a concentration of 5 nM down regulated AR mRNA in 22RV1 and LNCaP cells by more than 80% compared to controls (Table 4).

AR mRNA [3] = assay: AR mRNA downregulation by RT-qPCR at 5 nM siRNA in 22RV1 cells; conditions: 24 hrs post-transfection
Procedure: as §2

AR-SV(2) = assay: AR protein knock-down by Western blot after siRNA transfection in 22RV1 cells: AR-SV(2); conditions: 5 nM siRNA, 50 h post transfection, compared to controls
Method in brief: as §1

AR mRNA [4] = assay: AR mRNA IC50 and maximal KD, siRNA at various concentrations, 22RV1 cells, qPCR probes exon junctions 1/2 or 4/5
Procedure: as §2
(§3) To determine the concentration required to reduce AR expression by 50% (IC50) and maximal KD activity, these siRNAs were transfected into LNCaP, C4-2, and 22RV1 cells at various concentrations starting at 100 nM. C4-2 (MD Anderson) is an LNCaP subline that has been selected for resistance against clinically used AR antagonists (Wu et al., “Derivation of androgen-independent human LNCaP prostatic cancer cell sublines: Role of bone stromal cells,” International J Cancer 1994; 57:406-412). Cells were harvested 48 h post-transfection; RNA was prepared and analyzed as stated above. For these experiments, specific AR qPCR probes located at the exon junctions 1/2 or 4/5 were used that recognize most mRNAs of relevant AR isoforms or primarily full length AR mRNA, respectively. All tested siRNAs lowered AR expression with subnanomolar potency to 70% in 22RV1 cells and to ≥90% in LNCaP and C4-2 cells (Table 5). […]

AR mRNA [5] = assay: AR mRNA IC50 and maximal KD, siRNA at various concentrations, C4-2 cells, qPCR probes exon junctions 1/2 or 4/5
Procedure: as §2, §3

AR mRNA [6] = assay: AR mRNA IC50 and maximal KD, siRNA at various concentrations, LNCaP cells, qPCR probes exon junctions 1/2 or 4/5
Procedure: as §2, §3

[7] = AR qPCR probe at exon junction 1/2, 48 h post-transfection
[8] = AR qPCR probe at exon junction 1/2, 48 h post-transfection, read-out: IC50 (nM), 22RV1, Exon 1/2
[9] = AR qPCR probe at exon junction 4/5, 48 h post-transfection
[10] = AR qPCR probe at exon junction 4/5, 48 h post-transfection, read-out: IC50 (nM), 22RV1, Exon 4/5
[11] = AR qPCR probe at exon junction 1/2, 48 h post-transfection, read-out: IC50 (nM), C4-2, Exon 1/2
[12] = AR qPCR probe at exon junction 4/5, 48 h post-transfection, read-out: IC50 (nM), C4-2, Exon 4/5
[13] = AR qPCR probe at exon junction 1/2, 48 h post-transfection, read-out: IC50 (nM), LNCaP, Exon 1/2
[14] = AR qPCR probe at exon junction 4/5, 48 h post-transfection, read-out: IC50 (nM), LNCaP, Exon 4/5

Substance	% KD AR Protein 22RV1 AR FL(1) (AR FL(1))	% KD AR Protein LNCaP AR FL [1]	% KD AR Protein 22RV1 AR-SV(3) (AR-SV(3))	% KD AR RNA LNCaP (AR mRNA [2])	% KD AR RNA 22RV1 (AR mRNA [3])	% KD AR Protein 22RV1 AR-SV(2) (AR-SV(2))	max KD (%), 22RV1, Exon 1/2 (AR mRNA [4]; [7])	IC50 (AR mRNA [4]; [8])	max KD (%), 22RV1, Exon 4/5 (AR mRNA [4]; [9])	IC50 (AR mRNA [4]; [10])	max KD (%), C4-2, Exon 1/2 (AR mRNA [5]; [7])	IC50 (AR mRNA [5]; [11])	max KD (%), C4-2, Exon 4/5 (AR mRNA [5]; [9])	IC50 (AR mRNA [5]; [12])	max KD (%), LNCaP, Exon 1/2 (AR mRNA [6]; [7])	IC50 (AR mRNA [6]; [13])	max KD (%), LNCaP, Exon 4/5 (AR mRNA [6]; [9])	IC50 (AR mRNA [6]; [14])
XD-01821: AR siRNA with chemical modification, Id # 2207; sense X05337 (SEQ ID NO: 167), antisense X05338 (SEQ ID NO: 168) (sense mCmUfAmCfAmAfCmUfUmUfCmCfAmCfUmGfGmCfUdT*dT; antisense fAfGmCfCmAfGmUfGmGfAmAfAmGfUmUfGmUfAmGdT*dT)	73%	96%	7%	81%	68%	80%												
XD-01816: AR siRNA with chemical modification, Id # 1984; sense X05327 (SEQ ID NO: 157), antisense X05328 (SEQ ID NO: 158) (sense mGmCfAmAfAmGfGmUfUmCfUmCfUmGfCmUfAmGfAdT*dT; antisense fUfCmUfAmGfCmAfGmAfGmAfAmCfCmUfUmUfGmCdT*dT)	57%	97%	69%	74%	60%	66%												
XD-01813: AR siRNA with chemical modification, Id # 1201; sense X05321 (SEQ ID NO: 151), antisense X05322 (SEQ ID NO: 152) (sense mGmCfGmUfGmCfGmCfGmAfAmGfUmGfAmUfCmCfAdT*dT; antisense fUfGmGfAmUfCmAfCmUfUmCfGmCfGmCfAmCfGmCdT*dT)	73%	98%	80%	66%	53%	77%												
XD-01817: AR siRNA with chemical modification, Id # 1987; sense X05329 (SEQ ID NO: 159), antisense X05330 (SEQ ID NO: 160) (sense mAmAfGmGfUmUfCmUfCmUfGmCfUmAfGmAfCmGfAdT*dT; antisense fUfCmGfUmCfUmAfGmCfAmGfAmGfAmAfCmCfUmUdT*dT)	83%	99%	86%	87%	83%	91%	49.3%	0.059 nM	61.1%	0.043 nM	83.6%	0.021 nM	84.1%	0.023 nM	83.4%	0.018 nM	87.2%	0.017 nM
XD-01828: AR siRNA with chemical modification, Id # 2820; sense X05351 (SEQ ID NO: 181), antisense X05352 (SEQ ID NO: 182) (sense mGmGfGmUfGmUfCmAfCmUfAmUfGmGfAmGfCmUfCdT*dT; antisense fGfAmGfCmUfCmCfAmUfAmGfUmGfAmCfAmCfCmCdT*dT)	80%	90%	92%	84%	96%	89%	51.7%	0.042 nM	50.7%	0.028 nM	81.1%	0.022 nM	77.7%	0.02 nM	84.8%	0.023 nM	81.7%	0.028 nM
XD-01827: AR siRNA with chemical modification, Id # 2819; sense X05349 (SEQ ID NO: 179), antisense X05350 (SEQ ID NO: 180) (sense mUmGfGmGfUmGfUmCfAmCfUmAfUmGfGmAfGmCfUdT*dT; antisense fAfGmCfUmCfCmAfUmAfGmUfGmAfCmAfCmCfCmAdT*dT)	89%	90%	93%	86%	89%	92%	38.7%	0.108 nM	54.0%	0.068 nM	83.2%	0.052 nM	85.7%	0.052 nM	81.7%	0.053 nM	84.5%	0.06 nM
XD-01820: AR siRNA with chemical modification, Id # 2189; sense X05335 (SEQ ID NO: 165), antisense X05336 (SEQ ID NO: 166) (sense mGmUfAmCfCmAfGmAfGmUfCmGfCmGfAmCfUmAfCdT*dT; antisense fGfUmAfGmUfCmGfCmGfAmCfUmCfUmGfGmUfAmCdT*dT)	85%	100%	91%	59%	46%	91%												
XD-01826: AR siRNA with chemical modification, Id # 2817; sense X05347 (SEQ ID NO: 177), antisense X05348 (SEQ ID NO: 178) (sense mUmCfUmGfGmGfUmGfUmCfAmCfUmAfUmGfGmAfGdT*dT; antisense fCfUmCfCmAfUmAfGmUfGmAfCmAfCmCfCmAfGmAdT*dT)	87%	91%	93%	81%	89%	92%	52.4%	0.146 nM	64.8%	0.057 nM	86.5%	0.049 nM	87.0%	0.046 nM	84.6%	0.041 nM	86.0%	0.035 nM
XD-01853: AR siRNA with chemical modification, Id # 3310; sense X05401 (SEQ ID NO: 231), antisense X05402 (SEQ ID NO: 232) (sense mAmCfGmAfCmCfAmGfAmUfGmGfCmUfGmUfCmAfUdT*dT; antisense fAfUmGfAmCfAmGfCmCfAmUfCmUfGmGfUmCfGmUdT*dT)	91%	99%	13%			−43%												
XD-01838: AR siRNA with chemical modification, Id # 2931; sense X05371 (SEQ ID NO: 201), antisense X05372 (SEQ ID NO: 202) (sense mAmAfAmUfUmCfCmGfAmAfGmGfAmAfAmAfAmUfUdT*dT; antisense fAfAmUfUmUfUmUfCmCfUmUfCmGfGmAfAmUfUmUdT*dT)	85%	88%	67%			65%												
